# Where two headings read alike, the source gives them in different places.
# Key:
# [1] = DPPH microplate radical scavenging antioxidant assay; format: biochemical; details: for IC50: DPPH, 30 min, mean ± SD (n = 3)
# Protocol: The antioxidant activity of the synthesized compounds was measured in terms of hydrogen-donating or radical scavenging ability using the DPPH microplate-based method. Absorbance measurement was obtained using Microplate/cuvette reader (Spectramax M5, Molecular Devices, California, USA). Reference standard compound ascorbic acid was used as the positive control for this assay at concentrations ranging from 1.563 to 200 μg/mL. Test samples were prepared at a starting concentration of 200 μg/mL after mixing with 100 μl of 0.2 mM DPPH methanolic solution. A series of concentrations were tested for the samples in order to determine the 50% inhibitory concentration (IC50). Samples were incubated with DPPH in the dark for 30 min at room temperature (25° C.). The DPPH solution in methanol was prepared daily and stored in a flask covered with aluminum foil. DPPH radicals have an absorption maximum (λmax) at 515 nm, in which the absorbance values were measured and converted into percentage of antioxidant activity.
# Methanolic DPPH solution without antioxidant was applied as control and background control was samples in methanol only. IC50 was determined using Graphpad Prism 7 (Graphpad Software Inc. CA, USA). The percentage inhibition was calculated by using the formula:
# The assay was carried out in triplicate and performed as much as possible in an area protected against light. The data points are presented as the mean±standard deviation (SD) (n=3).
# [2] = system: Bacillus megaterium ATCC 9885; assay: Agar well diffusion, primary antimicrobial screening; format: cell-based; details: for zone of inhibition at 10000 µg/mL: Priestia megaterium, ATCC9885, B. megaterium ATCC 9885, 100 μL of 10 mg/ml in DMSO, 24 h, read-out: Inhibition Diameter Zone BM
# Description: (§1) The newly synthesized compounds were individually tested for their in vitro antimicrobial activity against the standard bacteria strains of American Type Culture Collection (ATCC), namely, Staphylococcus aureus ATCC 29213, Bacillus subtilis ATCC 6633, Bacillus megaterium ATCC 9885 (Gram-positive), Escherichia coli ATCC 2592 and Pseudomonas aeruginosa ATCC 27953 (Gram-negative). In addition, they were microbiologically tested against the locally isolated Saccharomyces cerevisiae (yeast) and the standard strain of Agricultural Research Service Culture Collection (NRRL) of the yeast like pathogenic fungus Candida albicans NRRL Y-477. The primary screening was carried out using the agar well diffusion method using nutrient agar (NA) medium and Sabourand dextrose agar (SDA) medium for pathological tested bacteria and yeast, respectively.
# (§2) Antimicrobial tests were carried out by the agar well diffusion method using 100 μL of suspension containing 1×10^8 CFU/mL of pathological tested bacteria and 1×10^6 CFU/ml of yeast spread on NA and SDA, respectively. After the media was cooled and solidified, wells (10 mm in diameter) were made in the solidified agar and loaded with 100 μL of tested compound solution prepared by dissolving 10 mg of the chemical compound in one ml of dimethyl sulfoxide (DMSO). The inculcated plates were then incubated for 24 h at 37° C. for bacteria and yeast. Negative controls were prepared using DMSO employed for dissolving the tested compound. Ciprofloxacin (10 mg/ml) and ketoconazole (10 mg/ml) were used as standard for antibacterial and antifungal activity, respectively. After incubation time, antimicrobial activity was evaluated by measuring the zone of inhibition against the test organisms and compared with that of the standard. Antimicrobial activities were expressed as inhibition diameter zones in millimeters (mm). The experiment was carried out in triplicate and the average zone of inhibition was calculated.
# [3] = system: Bacillus subtilis ATCC 6633; assay: as above; format: cell-based; details: for zone of inhibition at 10000 µg/mL: Bacillus subtilis, ATCC6633, B. subtilis ATCC 6633, 100 μL of 10 mg/ml in DMSO, 24 h, read-out: Inhibition Diameter Zone BS; for antibacterial activity compared with reference drug: B. subtilis
# Description: as §1, §2
# [4] = system: Candida albicans NRRL Y-477; assay: as above; format: cell-based; details: for zone of inhibition at 10000 µg/mL: Candida albicans, NRRLY477, C. albicans NRRL Y-477, 100 μL of 10 mg/ml in DMSO, 24 h, read-out: Inhibition Diameter Zone CA; for antifungal activity compared with reference drug: C. albicans
# Description: as §1, §2
# [5] = system: Escherichia coli ATCC 2592; assay: as above; format: cell-based; details: for zone of inhibition at 10000 µg/mL: Escherichia coli, ATCC2592, E. coli ATCC 2592, 100 μL of 10 mg/ml in DMSO, 24 h, read-out: Inhibition Diameter Zone EC; for antibacterial activity compared with ciprofloxacin: E. coli
# Description: as §1, §2
# [6] = system: Pseudomonas aeruginosa ATCC 27953; assay: as above; format: cell-based; details: for zone of inhibition at 10000 µg/mL: Pseudomonas aeruginosa, ATCC27953, P. aeruginosa ATCC 27953, 100 μL of 10 mg/ml in DMSO, 24 h, read-out: Inhibition Diameter Zone PA; for antibacterial activity compared with standard: P. aeruginosa
# Description: as §1, §2
# [7] = system: Saccharomyces cerevisiae (local isolate); assay: as above; format: cell-based; details: for zone of inhibition at 10000 µg/mL: Saccharomyces cerevisiae, 24 h, read-out: Inhibition Diameter Zone SC; for antimicrobial activity compared with ketoconazole: S. cerevisiae
# Description: as §1, §2
# trypsin = assay: Proteinase inhibitory activity (trypsin/casein); format: biochemical; details: for % Inhibition of proteinase activity: 250 μg/ml, mean ± SD (n = 3)
# Protocol: For proteinase inhibitory activity, the reaction mixture (2 ml) contained 0.06 mg trypsin, 20 mM Tris HCl buffer (pH 7.4) and 1 ml test sample (250 μg/ml for each compound). The mixture was incubated for 5 min and then 1 ml of 0.8% (w/v) casein was added. The mixture was incubated for an additional 20 min. 1 ml of 10% perchloric acid was added to arrest the reaction. The cloudy suspension was centrifuged, and the absorbance of the supernatant was read at 280 nm. Reference standard compound aspirin was used as the positive control for this assay. The experiment was performed in triplicate. Percentage inhibition of […] was calculated by using the following formula:
# [formula] where Acontrol is the absorbance of the control reaction and Atest is the absorbance of the control reaction with sample.
# [8] = system: Staphylococcus aureus ATCC 29213; assay: Agar well diffusion, primary antimicrobial screening; format: cell-based; details: for zone of inhibition at 10000 µg/mL: Staphylococcus aureus, ATCC29213, S. aureus ATCC 29213, 100 μL of 10 mg/ml in DMSO, 24 h, read-out: Inhibition Diameter Zone SA; for antibacterial activity compared with ciprofloxacin: S. aureus
# Description: as §1, §2
# tested microorganisms = assay: Agar well diffusion, summary over the tested microorganisms; format: cell-based; details: for antimicrobial activity compared with standard antimicrobials (ciprofloxacin and ketoconazole): against one or more microorganisms
# Description: as §1, §2
# [9] = system: formaldehyde-induced paw oedema; assay: Formaldehyde-induced rat paw oedema; format: in vivo; details: 2.5 mg/kg orally
# Protocol: Testing was performed to determine formaldehyde-induced rat paw oedema (edema). For the formaldehyde-induced rat paw oedema (edema) test, female Wister albino rats (150-175 g) were used for determination of the anti-inflammatory activities. The rats were obtained from the animal house colony of the National Organization for Drug Control and Research (NODCAR), Egypt. The animals were kept in standard plastic cages in an air conditioned room at 22±3° C., 55±5% humidity and supplied with standard laboratory diet and water ad libitum. All animal experimental procedures were carried out according to the Ethics Committee of the National Research Centre, Cairo, Egypt and followed the guidelines of the National Institutes of Health, Guide for Care and Use of Laboratory Animals (1985).
# The percentage protection against inflammation was calculated by using following formula:
# [formula] where Vc is the mean percentage increase in paw volume in the control and Vd is the mean percentage increase in paw volume after injection of the test compound. Values were expressed as mean±standard error (S.E.). Comparisons between mean values were carried out using two-way analysis of variance (ANOVA), followed by Tukey Kramer multiple comparisons test for all acute toxicity study tests. […] was considered significant. Graph pad prism software (version 6) was used to carry out all statistical tests.
# [10] = S. cerevisiae local isolate, 100 μL of 10 mg/ml in DMSO
SMILES,IC50 [1],zone of inhibition at 10000 µg/mL [2],zone of inhibition at 10000 µg/mL [3],zone of inhibition at 10000 µg/mL [4],zone of inhibition at 10000 µg/mL [5],zone of inhibition at 10000 µg/mL [6],% Inhibition of proteinase activity (trypsin),melting point,"zone of inhibition at 10000 µg/mL [7, 10]",other results
"Cc1ccc2oc(=O)c3c(c2c1)OC(N=CN(C)C)=C(C#N)C3c1ccc([N+](=O)[O-])cc1 (racemic) [Compound 7a, (±)-N′-(3-cyano-9-methyl-4-(4-nitrophenyl)-5-oxo-4H,5H-pyrano[3,2-c]chromen-2-yl)-N,N-dimethylformimidamide]",— ((—): inactive (IC50 > 200 μg/mL)),< 15 mm,< 15 mm,< 15 mm,< 15 mm,< 15 mm,31.99 ± 2.45%,279 to 281 °C,–,zone of inhibition at 10000 µg/mL [7]: < 15 mm
"Cc1ccc2oc(=O)c(S(=O)(=O)Nc3ccc(S(N)(=O)=O)cc3)c(O)c2c1 [Compound 10b, 4-Hydroxy-6-methyl-2-oxo-N-(4-sulfamoylphenyl)-2H-chromene-3-sulfonamide]",61.78 ± 2.719 µg/mL,< 15 mm,< 15 mm,< 15 mm,< 15 mm,< 15 mm,5.93 ± 2.11%,241 to 243 °C,< 15 mm,zone of inhibition at 10000 µg/mL [8]: < 15 mm; growth inhibition zones (tested microorganisms; against one or more of the tested microorganisms): < 15 mm
"Cc1ccc2oc(=O)c(S(=O)(=O)Nc3ccc(S(=O)(=O)Nc4nccs4)cc3)c(O)c2c1 [Compound 10f, 4-hydroxy-6-methyl-2-oxo-N-(4-(N-(thiazol-2-yl)sulfamoyl)phenyl)-2H-chromene-3-sulfonamide]",83.52 ± 1.849 µg/mL,–,–,–,–,–,43.88 ± 5.6%,167 to 169 °C,–,in vitro anti-proteinase activity compared with aspirin (trypsin): as potent; in vivo anti-inflammatory activity [9]: significant protection against inflammation
"Cc1ccc2oc(=O)c(S(=O)(=O)Nc3ccc(O)cc3)c(O)c2c1 [Compound 11d, 4-Hydroxy-N-(4-hydroxyphenyl)-6-methyl-2-oxo-2H-chromene-3-sulfonamide]",4.30 ± 0.531 µg/mL,–,–,–,–,–,20.15 ± 7.31%,253 to 254 °C,32 mm,antioxidant activity ([1]; overview): particularly high antioxidant activity; antibacterial activity compared with reference drug [3]: comparable antibacterial activities to the standard; antifungal activity compared with reference drug [4]: higher antifungal activity; antibacterial activity compared with ciprofloxacin [5]: higher antibacterial activity than ciprofloxacin; antibacterial activity compared with standard [6]: higher than that of the standard drugs; antimicrobial activity compared with ketoconazole [7]: higher than that of the corresponding control drug; antibacterial activity compared with ciprofloxacin [8]: higher than the control ciprofloxacin; antimicrobial activity compared with standard antimicrobials (ciprofloxacin and ketoconazole) (tested microorganisms): equal to or higher than the standard antimicrobials
"O=C(/C=C/c1ccc([N+](=O)[O-])cc1)c1ccc(NS(=O)(=O)c2c(O)c3cc(Cl)ccc3oc2=O)cc1 [Compound 12a, (E)-6-chloro-4-hydroxy-N-(4-(3-(4-nitrophenyl)acryloyl)phenyl)-2-oxo-2H-chromene-3-sulfonamide]",— ((—): inactive (IC50 > 200 μg/mL)),–,–,< 15 mm,< 15 mm,< 15 mm,62.14±4.87%,205 to 207 °C,< 15 mm,in vitro anti-proteinase activity compared with aspirin (trypsin): more potent
"O=C(/C=C/c1ccc(Cl)cc1)c1ccc(NS(=O)(=O)c2c(O)c3cc(Cl)ccc3oc2=O)cc1 [Compound 12c, (E)-6-chloro-N-(4-(3-(4-chlorophenyl)acryloyl)phenyl)-4-hydroxy-2-oxo-2H-chromene-3-sulfonamide]",— ((—): inactive (IC50 > 200 μg/mL)),–,–,–,–,–,17.6 ± 6.86%,157 to 159 °C,31 mm,antibacterial activity compared with ciprofloxacin ([2]; B. megaterium): comparable to ciprofloxacin; antibacterial activity compared with reference drug [3]: comparable antibacterial activities to the standard; antifungal activity compared with reference drug [4]: higher antifungal activity; antibacterial activity compared with ciprofloxacin [5]: comparable antibacterial potential; antibacterial activity compared with standard [6]: comparable antibacterial activity to the standard; antimicrobial activity compared with ketoconazole [7]: higher than that of the corresponding control drug; antibacterial activity compared with ciprofloxacin [8]: equal to ciprofloxacin; antimicrobial activity compared with standard antimicrobials (ciprofloxacin and ketoconazole) (tested microorganisms): equal to or higher than the standard antimicrobials
"CC(=O)N1CCN(c2ccc(OCC3COC(Cn4ccnc4)(c4ccc(Cl)cc4Cl)O3)cc2)CC1 (centres unmarked) [Ketoconazole, ketoconazole, reference compound]",–,< 15 mm,< 15 mm,–,< 15 mm,< 15 mm,–,–,–,zone of inhibition at 10000 µg/mL [8]: < 15 mm

# From patent US10730885B1, “Coumarin derivatives” (KING SAUD UNIVERSITY, priority 2019, dated 2020)
